Reference: US8372982B2, “Fungicidal N-(Phenylcycloalkyl)carboxamide, N-(Benzylcycloalkyl)carboxamide and thiocarboxamide derivatives” (Bayer Cropscience AG, priority 2009, dated 2013)

Test system: Leptosphaeria nodosum
Assay: In vivo comparative test on Leptosphaeria nodoruin (wheat)/preventive
Conditions: dose of 500 ppm, preventive, evaluated 10 days after the inoculation
Experimental: Solvent: 49 parts by weight of N,N-dimethylacetamide Emulsifier: 1 part by weight of alkylaryl polyglycol ether To produce a suitable preparation of active compound, 1 part by weight of active compound or the compound combination is mixed with the stated amounts of solvent and emulsifier, and the concentrate is diluted with water to the desired concentration. To test for protective activity, young plants are sprayed with a preparation of active compound or active compound combination at the stated rate of application. After the spray coating has dried on, the plants are sprayed with a spore suspension of Leptosphaeria nodosum. The plants remain for 48 hours in an incubation cabinet at 20° C. and a relative atmospheric humidity of 100%. The plants are placed in a greenhouse at a temperature of approximately 15° C. and a relative atmospheric humidity of approximately 80%. The test is evaluated 10 days after the inoculation. 0% means an efficacy which corresponds to that of the control, while an efficacy of 100% means that no disease is observed. […]

With `Cn1cc(C(=O)N[C@@H]2C[C@@H]2c2ccc(Cl)cc2)c(C(F)F)n1` (relative stereo) [Example 1.001, cis-N-[2-(4-chlorophenyl)cyclopropyl]-3-(difluoro-methyl)-1-methyl-1H-pyrazole-4-carboxamide] the disease control was “less than 10%”.
